Results published in ChEMBL document CHEMBL1201862, “PubChem BioAssay data set” (2004).
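Tested at 5 concentrations; 48 h exposure; 96-well plates; endpoints linearly interpolated, else capped at highest concentration. Here, GI50 denotes the concentration required for 50% inhibition of growth.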 The source made the active and inactive calls. Cut-off read from the data, not from the text of the source: active = GI50 up to about 1.1 µM and inactive = higher.

Assays:
Experiment in all cases: NCI-60 cell line screen, 48 h
[1] = test system: NCI-H460
[2] = test system: SF-295
[3] = test system: CAKI-1
[4] = test system: RXF 393
[5] = test system: HCT-116
[6] = test system: UO-31
[7] = test system: COLO 205
[8] = test system: NCI-H522
[9] = test system: TK-10
[10] = test system: M19-MEL
[11] = test system: SNB-19
[12] = test system: IGROV-1
[13] = test system: SK-MEL-5
[14] = test system: UACC-62
[15] = test system: MOLT-4
[16] = test system: CCRF-CEM

Row | Structure (SMILES) | GI50 [1] | GI50 [2] | GI50 [3] | GI50 [4] | GI50 [5] | GI50 [6] | GI50 [7] | GI50 [8] | GI50 [9] | GI50 [10] | GI50 [11] | GI50 [12] | GI50 [13] | GI50 [14] | GI50 [15] | GI50 [16]
1 | CC1=C(O)/C(=C/C(C)CCC/C(C)=C/C=C/C(C)CCCc2ccoc2)OC1=O (stereo unspecified) | 30.3 µM (inactive) | 31.9 µM (inactive) | 45.5 µM (inactive) | 24.7 µM (inactive) | > 10 µM (inactive) | 69.2 µM (inactive) | 35.3 µM (inactive) | 37.2 µM (inactive) | 20.9 µM (inactive) | 48.3 µM (inactive) | – | – | – | – | – | –
2 | CC(C)(C)/N=C\N1CCC(C(c2ccccc2)c2ccccc2)CC1 | 87.7 µM (inactive) | > 100 µM (inactive) | 42.4 µM (inactive) | 22.9 µM (inactive) | 50 µM (inactive) | – | 19.1 µM (inactive) | – | 40.6 µM (inactive) | 37.2 µM (inactive) | > 100 µM (inactive) | > 100 µM (inactive) | 67 µM (inactive) | 35.7 µM (inactive) | – | –
3 | CC1c2[nH]c3ccccc3c2CCN1O (stereo unspecified) | – | > 100 µM (inactive) | > 100 µM (inactive) | > 100 µM (inactive) | > 100 µM (inactive) | 29.4 µM (inactive) | > 100 µM (inactive) | > 100 µM (inactive) | > 100 µM (inactive) | > 100 µM (inactive) | > 100 µM (inactive) | > 100 µM (inactive) | > 100 µM (inactive) | > 100 µM (inactive) | > 100 µM (inactive) | > 100 µM (inactive)
4 | CN(C)c1n/c(=N/c2ccc3c(c2)OCO3)ss1 | 47.4 µM (inactive) | > 100 µM (inactive) | 97.7 µM (inactive) | 96.4 µM (inactive) | 49 µM (inactive) | 27.2 µM (inactive) | – | 26.7 µM (inactive) | > 100 µM (inactive) | > 100 µM (inactive) | 74.5 µM (inactive) | > 100 µM (inactive) | 55.3 µM (inactive) | 58.3 µM (inactive) | 22.4 µM (inactive) | 32.5 µM (inactive)
5 | CSc1nc(NC2OCC(OC(C)=O)C(OC(C)=O)C2OC(C)=O)c2c(n1)OCC2=O (stereo unspecified) | > 100 µM (inactive) | > 100 µM (inactive) | > 100 µM (inactive) | > 100 µM (inactive) | > 100 µM (inactive) | > 100 µM (inactive) | > 100 µM (inactive) | > 100 µM (inactive) | > 100 µM (inactive) | > 100 µM (inactive) | > 100 µM (inactive) | > 100 µM (inactive) | > 100 µM (inactive) | > 100 µM (inactive) | > 100 µM (inactive) | > 100 µM (inactive)
6 | CC1(C)CC2(S(=O)(=O)c3ccccc3)ON1CC2S(=O)(=O)c1ccccc1 (stereo unspecified) | > 100 µM (inactive) | > 100 µM (inactive) | 77.3 µM (inactive) | 48.4 µM (inactive) | > 100 µM (inactive) | 94.2 µM (inactive) | > 100 µM (inactive) | 29.4 µM (inactive) | > 100 µM (inactive) | > 100 µM (inactive) | > 100 µM (inactive) | > 100 µM (inactive) | – | 91.2 µM (inactive) | 30.8 µM (inactive) | 26.8 µM (inactive)
7 | CCCCCCCCCCCCCCC(C)CCC(=O)O (stereo unspecified) | 31.9 µM (inactive) | > 100 µM (inactive) | > 100 µM (inactive) | > 100 µM (inactive) | 36.8 µM (inactive) | – | 44 µM (inactive) | – | > 100 µM (inactive) | 47.2 µM (inactive) | > 100 µM (inactive) | > 100 µM (inactive) | > 100 µM (inactive) | 78.9 µM (inactive) | – | –
8 | O=C(/C=C/c1ccc(Cl)c(Cl)c1)C1CCC(Cl)CC1 (stereo unspecified) | 23.2 µM (inactive) | 21 µM (inactive) | 21.3 µM (inactive) | 17.9 µM (inactive) | 11.8 µM (inactive) | 18.4 µM (inactive) | 21.8 µM (inactive) | 16.7 µM (inactive) | 32.7 µM (inactive) | 17.3 µM (inactive) | 17.7 µM (inactive) | 17.1 µM (inactive) | 18.3 µM (inactive) | 17 µM (inactive) | – | –
9 | O=C1c2ccccc2C(=O)c2sc(Nc3cccc(Cl)c3)nc21 | 2.07 µM (inactive) | 1.62 µM (inactive) | 2.04 µM (inactive) | 1.45 µM (inactive) | 1.82 µM (inactive) | 2.3 µM (inactive) | 5.38 µM (inactive) | 1.45 µM (inactive) | 2.88 µM (inactive) | 0.322 µM (active) | 2.07 µM (inactive) | 2.07 µM (inactive) | 1.56 µM (inactive) | 1.73 µM (inactive) | 0.492 µM (active) | 1.36 µM (inactive)
10 | O=c1c2ccccc2c(=O)c2c1cc(Cl)c1[nH]c3c([nH]c12)c(Cl)cc1c(=O)c2ccccc2c(=O)c13 | > 100 µM (inactive) | > 100 µM (inactive) | > 100 µM (inactive) | > 100 µM (inactive) | > 100 µM (inactive) | > 100 µM (inactive) | > 100 µM (inactive) | > 100 µM (inactive) | > 100 µM (inactive) | > 100 µM (inactive) | > 100 µM (inactive) | > 100 µM (inactive) | – | > 100 µM (inactive) | > 100 µM (inactive) | > 100 µM (inactive)
11 | CCOc1ccc(/N=C\c2ccc3cc(C)ccc3n2)cc1 | 69.3 µM (inactive) | 68.5 µM (inactive) | 36.9 µM (inactive) | 91 µM (inactive) | – | 31 µM (inactive) | > 100 µM (inactive) | > 100 µM (inactive) | 79.3 µM (inactive) | 52.4 µM (inactive) | 49 µM (inactive) | 77.6 µM (inactive) | 57.8 µM (inactive) | 37.9 µM (inactive) | 27.3 µM (inactive) | 22.5 µM (inactive)
12 | O/N=C1/C(=C/c2ccc3c(c2)OCO3)CCCC1C(NO)c1ccc2c(c1)OCO2 (stereo unspecified) | 29.4 µM (inactive) | – | 28.6 µM (inactive) | 23.6 µM (inactive) | 17.3 µM (inactive) | 23.4 µM (inactive) | 25.4 µM (inactive) | 17.7 µM (inactive) | 26.1 µM (inactive) | 24.8 µM (inactive) | 32.4 µM (inactive) | 28.2 µM (inactive) | 17.4 µM (inactive) | 19 µM (inactive) | 16.9 µM (inactive) | 19.2 µM (inactive)
13 | CC(=O)C(CN(C)Cc1ccccc1)C(c1ccccc1)c1c(O)c2ccccc2oc1=O (stereo unspecified) | > 100 µM (inactive) | > 100 µM (inactive) | > 100 µM (inactive) | > 100 µM (inactive) | > 100 µM (inactive) | 16.6 µM (inactive) | > 100 µM (inactive) | 80.4 µM (inactive) | > 100 µM (inactive) | > 100 µM (inactive) | 11 µM (inactive) | > 100 µM (inactive) | > 100 µM (inactive) | > 100 µM (inactive) | > 100 µM (inactive) | > 100 µM (inactive)
14 | Cc1cc(NS(=O)(=O)c2ccc(Nc3c4ccccc4nc4c(C(=O)N5CCN(CCO)CC5)ccc(Cl)c34)cc2)no1 | > 100 µM (inactive) | > 100 µM (inactive) | > 100 µM (inactive) | > 100 µM (inactive) | > 100 µM (inactive) | > 100 µM (inactive) | > 100 µM (inactive) | – | > 100 µM (inactive) | > 100 µM (inactive) | > 100 µM (inactive) | 96.2 µM (inactive) | 36.3 µM (inactive) | 42.5 µM (inactive) | 36.3 µM (inactive) | 28.8 µM (inactive)
15 | CCN(CC)[C@@H]1c2cc3c(cc2C(c2cc(OC)c(O)c(OC)c2)C2C(=O)CO[C@@H]21)OCO3 (stereo partly specified) | > 100 µM (inactive) | > 100 µM (inactive) | > 100 µM (inactive) | 65.5 µM (inactive) | > 100 µM (inactive) | > 100 µM (inactive) | > 100 µM (inactive) | > 100 µM (inactive) | > 100 µM (inactive) | > 100 µM (inactive) | – | > 100 µM (inactive) | > 100 µM (inactive) | > 100 µM (inactive) | > 100 µM (inactive) | > 100 µM (inactive)
16 | O=C(O)CN(c1ccccc1)S(=O)(=O)c1cccc([N+](=O)[O-])c1 | > 100 µM (inactive) | > 100 µM (inactive) | > 100 µM (inactive) | > 100 µM (inactive) | – | > 100 µM (inactive) | > 100 µM (inactive) | > 100 µM (inactive) | > 100 µM (inactive) | > 100 µM (inactive) | > 100 µM (inactive) | > 100 µM (inactive) | > 100 µM (inactive) | > 100 µM (inactive) | > 100 µM (inactive) | > 100 µM (inactive)
17 | C[N+](C)(C)CC1CCCC(C[N+](C)(C)C)C1=NO (stereo unspecified) | > 100 µM (inactive) | > 100 µM (inactive) | > 100 µM (inactive) | > 100 µM (inactive) | > 100 µM (inactive) | > 100 µM (inactive) | > 100 µM (inactive) | – | > 100 µM (inactive) | > 100 µM (inactive) | > 100 µM (inactive) | > 100 µM (inactive) | > 100 µM (inactive) | > 100 µM (inactive) | > 100 µM (inactive) | –
18 | C=C1CC[C@@H]2C(C)(C)CCC[C@@]2(C)[C@@H]1Cc1cc(O)ccc1O | 14 µM (inactive) | 10.2 µM (inactive) | 8.26 µM (inactive) | 1.67 µM (inactive) | 4.62 µM (inactive) | 2.52 µM (inactive) | 15.9 µM (inactive) | 1.84 µM (inactive) | 3.17 µM (inactive) | 3.56 µM (inactive) | 6.24 µM (inactive) | 2.13 µM (inactive) | 7.06 µM (inactive) | 10.4 µM (inactive) | 0.912 µM (active) | 0.558 µM (active)
